The source of these data is ChEMBL document CHEMBL4184289, “Design, synthesis and anticancer activities evaluation of novel 5H-dibenzo[b,e]azepine-6,11-dione derivatives containing 1,3,4-oxadiazole units” (Bioorg Med Chem Lett, 2018).

What is called IC50 is the concentration at which inhibition is half-maximal.

The source made the active and inactive calls. The calls are words filed in the database; no cut-off is given here. Some results are limits rather than exact numbers.

The subject of assay [1] is OVCAR-3. Description: Antiproliferative activity against human OVCAR3 cells after 24 hrs by MTT assay. It is filed as functional, cell-based.
Assay [2] addresses Poly [ADP-ribose] polymerase 1 (Homo sapiens, UniProt P09874). Description: Inhibition of recombinant human GST-tagged PARP1 expressed in Escherichia coli using damaged DNA as substrate after 30 mins in presence of NAD+ by resazurin dye based fluorescence assay. A general note: The colour change of resazurin is a common sign of viable cells or microbes.
The subject of assay [3] is OVCAR-3. Description: Induction of apoptosis in human OVCAR3 cells assessed as downregulation of Bcl2 protein expression at 0.625 to 10 uM after 24 hrs by Western blot method. It is filed as functional, cell-based. For orientation: A western blot detects proteins with antibodies after separation by electrophoresis.
[4] abbreviates: Homo sapiens, OVCAR-3, 24 h, read-out: IC50.

Chain of Poly [ADP-ribose] polymerase 1 (P09874 whole entry): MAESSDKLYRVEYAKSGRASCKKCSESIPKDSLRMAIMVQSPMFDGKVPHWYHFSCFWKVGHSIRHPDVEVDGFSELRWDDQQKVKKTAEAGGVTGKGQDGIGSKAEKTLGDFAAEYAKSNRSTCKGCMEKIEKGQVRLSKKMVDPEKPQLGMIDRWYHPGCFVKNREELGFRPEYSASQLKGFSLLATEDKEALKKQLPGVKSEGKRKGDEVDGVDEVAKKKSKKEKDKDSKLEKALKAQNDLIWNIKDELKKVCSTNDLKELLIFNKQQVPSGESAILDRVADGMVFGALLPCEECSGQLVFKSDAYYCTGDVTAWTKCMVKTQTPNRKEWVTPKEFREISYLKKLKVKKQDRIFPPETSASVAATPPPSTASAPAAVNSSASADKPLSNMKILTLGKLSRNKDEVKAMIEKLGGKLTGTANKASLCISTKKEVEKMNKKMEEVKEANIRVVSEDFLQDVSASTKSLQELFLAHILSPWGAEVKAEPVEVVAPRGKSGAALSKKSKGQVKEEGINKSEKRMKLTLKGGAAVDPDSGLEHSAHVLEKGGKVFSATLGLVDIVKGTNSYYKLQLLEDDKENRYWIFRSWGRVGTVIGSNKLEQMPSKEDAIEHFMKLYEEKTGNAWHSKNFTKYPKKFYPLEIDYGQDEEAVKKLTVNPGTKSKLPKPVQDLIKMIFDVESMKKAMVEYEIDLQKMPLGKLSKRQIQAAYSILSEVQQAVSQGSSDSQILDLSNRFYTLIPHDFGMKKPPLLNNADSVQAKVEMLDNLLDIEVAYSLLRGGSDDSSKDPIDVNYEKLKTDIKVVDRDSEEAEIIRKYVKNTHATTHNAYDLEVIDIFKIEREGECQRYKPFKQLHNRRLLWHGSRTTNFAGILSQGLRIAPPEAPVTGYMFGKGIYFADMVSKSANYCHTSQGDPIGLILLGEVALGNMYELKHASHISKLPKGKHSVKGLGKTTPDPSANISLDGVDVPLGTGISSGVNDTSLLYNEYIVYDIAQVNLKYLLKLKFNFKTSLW

As to `O=C(NCc1nnc(-c2cccc3c(=O)c4ccccc4c(=O)[nH]c23)o1)c1ccccc1Cl`, the results for the IC50 (in the assay on OVCAR-3 [1] (setting [4]); in assay [2] (read-out: IC50)) were greater than 100 µM and 0.745 µM, respectively.
For the molecule `COc1c(Br)cc(Br)cc1/C=C/c1nnc(-c2cc(C)cc3c(=O)c4ccccc4c(=O)[nH]c23)o1`, the IC50 result is “Not Active” in the assay with OVCAR-3 [1] (ovcar-3) and 0.939 µM in assay [2] (read-out: IC50).
As to `Cc1cc(-c2nnc(CNC(=O)c3ccccc3Cl)o2)c2[nH]c(=O)c3ccccc3c(=O)c2c1`, the IC50 result (in the assay on OVCAR-3 [1] (ovcar-3); in assay [2]) was “Not Active” throughout.
`O=c1[nH]c2c(-c3nnc(-c4ccccc4)o3)cccc2c(=O)c2ccccc12`: the values for the IC50 (in the assay on OVCAR-3 [1] (setting [4]); in assay [2]) were greater than 100 µM and “Not Active”, respectively.
In the case of `CNCc1ccc(-c2[nH]c3cc(F)cc4c3c2CCNC4=O)cc1` [RUCAPARIB], the IC50 in the assay on OVCAR-3 [1] (setting [4]) came out at 3.31 µM.
As to `O=c1[nH]c2c(-c3nnc(-c4ccccc4Cl)o3)cccc2c(=O)c2ccccc12`, the figures for the IC50 (in the assay on OVCAR-3 [1] (setting [4]); in assay [2] (read-out: IC50)) were greater than 100 µM and 1.1 µM, respectively.
In the same order, the values of `O=C(NCc1nnc(-c2cccc3c(=O)c4ccccc4c(=O)[nH]c23)o1)c1ccccc1` are greater than 100 µM and 1.26 µM.
The corresponding values for `Cc1cc(-c2nnc(/C=C/c3ccccc3)o2)c2[nH]c(=O)c3ccccc3c(=O)c2c1` are 17.7 µM and 0.446 µM.
Regarding `Cc1cc(-c2nnc(COc3ccccc3)o2)c2[nH]c(=O)c3ccccc3c(=O)c2c1`, the IC50 entry (in the assay with OVCAR-3 [1] (ovcar-3); in assay [2]) was “Not Active” in each case.
As to `COc1ccc(Br)cc1/C=C/c1nnc(-c2cc(C)cc3c(=O)c4ccccc4c(=O)[nH]c23)o1`, the half-maximal inhibitory concentration (IC50) result (in the assay on OVCAR-3 [1] (ovcar-3); in assay [2]) was “Not Active” in each case.
`COc1ccc(F)cc1/C=C/c1nnc(-c2cc(C)cc3c(=O)c4ccccc4c(=O)[nH]c23)o1`: the IC50 was greater than 100 µM with OVCAR-3 [1] (setting [4]) and 1.05 µM in assay [2] (read-out: IC50).
In the same order, the values of `O=c1[nH]c2c(-c3nnc(/C=C/c4ccccc4)o3)cccc2c(=O)c2ccccc12` are 12.1 µM and 0.4 µM.
In the same order, the values of `COc1ccccc1/C=C/c1nnc(-c2cccc3c(=O)c4ccccc4c(=O)[nH]c23)o1` are 8.99 µM and 0.136 µM.
The corresponding values for `Cc1cc(-c2nnc(-c3ccccc3)o2)c2[nH]c(=O)c3ccccc3c(=O)c2c1` are 10.1 µM and 0.277 µM.
`COc1ccc(Br)cc1/C=C/c1nnc(-c2cccc3c(=O)c4ccccc4c(=O)[nH]c23)o1`: the 50% inhibitory concentration (IC50) in the assay with OVCAR-3 [1] (setting [4]) is 1.66 µM; in assay [2] (read-out: IC50), 0.047 µM. For the same molecule, the outcome in the assay with OVCAR-3 [3] was Active.
For `Cc1cc(-c2nnc(CNC(=O)c3ccccc3)o2)c2[nH]c(=O)c3ccccc3c(=O)c2c1`, the values for the IC50 (in the assay on OVCAR-3 [1] (setting [4]); in assay [2] (read-out: IC50)) were 11.4 µM and 0.304 µM, respectively.
For the molecule `O=c1[nH]c2c(-c3nnc(COc4ccccc4)o3)cccc2c(=O)c2ccccc12`, the IC50 in the assay on OVCAR-3 [1] (setting [4]) was found to be 6.28 µM; in assay [2] (read-out: IC50), 0.099 µM.
The corresponding values for `COc1ccccc1/C=C/c1nnc(-c2cc(C)cc3c(=O)c4ccccc4c(=O)[nH]c23)o1` are 10.7 µM and 0.147 µM.
Turning to `COc1ccc(F)cc1/C=C/c1nnc(-c2cccc3c(=O)c4ccccc4c(=O)[nH]c23)o1`, the half-inhibitory concentration (IC50) is greater than 100 µM with OVCAR-3 [1] (setting [4]) and 0.951 µM in assay [2] (read-out: IC50).
In the same order, the values of `COc1ccc(Cl)cc1/C=C/c1nnc(-c2cccc3c(=O)c4ccccc4c(=O)[nH]c23)o1` are greater than 100 µM and 1.26 µM.
The corresponding values for `Cc1cc(-c2nnc(-c3ccccc3Cl)o2)c2[nH]c(=O)c3ccccc3c(=O)c2c1` are 4.19 µM and 0.051 µM.
With `COc1c(Br)cc(Br)cc1/C=C/c1nnc(-c2cccc3c(=O)c4ccccc4c(=O)[nH]c23)o1`, the IC50 in the assay with OVCAR-3 [1] (setting [4]) amounted to 1.4 µM; in assay [2] (read-out: IC50), 0.025 µM. Also, in the assay with OVCAR-3 [3], the result was Active.
Turning to `COc1ccc(Cl)cc1/C=C/c1nnc(-c2cc(C)cc3c(=O)c4ccccc4c(=O)[nH]c23)o1`, the figures for the IC50 (with OVCAR-3 [1] (setting [4]); in assay [2] (read-out: IC50)) were greater than 100 µM and 1.19 µM, respectively.
